According to the NIST ThermoML archive (doi:10.1016/j.jct.2016.02.016):

Columns and labels:
[1] = refractive index (Na D-line) (dimensionless); settings: 101.33 kPa, Liquid, Standard Abbe refractometry
[2] = 101.33 kPa, Liquid; for speed of sound: Sing-around technique in a fixed-path interferometer; for mass density: Vibrating tube method
[3] = xn = mol fraction of the nth substance listed; settings: 100 kPa, Liquid; for speed of sound: Frequency=3 MHz, Sing-around technique in a fixed-path interferometer; for mass density: Vibrating tube method
[4] = refractive index (Na D-line) (dimensionless); xn = mol fraction of the nth substance listed; settings: 100 kPa, Liquid, Standard Abbe refractometry

CCCCCC(C)=O [2-heptanone]
Settings | mass density, 293.15 K [kg/m3] | mass density, 298.15 K [kg/m3] | mass density, 303.15 K [kg/m3] | refractive index, 298.15 K | speed of sound, 293.15 K [m/s] | speed of sound, 298.15 K [m/s] | speed of sound, 303.15 K [m/s]
[1] | – | – | – | 1.40688 | – | – | –
[2] | 815.39 | 811.08 | 806.81 | – | 1282.1 | 1262.7 | 1244.4

CCCCCC(C)=O [2-heptanone] + CN(C)C=O
298.15 K
Settings | mass density, [3] [kg/m3] | refractive index, [4] | speed of sound, [3] [m/s]
x2 = 0 | 811.08 | 1.40688 | 1262.7
x2 = 0.053 | 815.095 | 1.40756 | 1268.2
x2 = 0.0936 | 818.298 | 1.40811 | 1272.9
x2 = 0.1502 | 822.964 | 1.4089 | 1279
x2 = 0.2011 | 827.389 | 1.40962 | 1285.3
x2 = 0.2495 | 831.808 | 1.41034 | 1291.3
x2 = 0.296 | 836.272 | 1.41107 | 1297.5
x2 = 0.3419 | 840.896 | 1.41182 | 1304
x2 = 0.3963 | 846.646 | 1.41276 | 1312.2
x2 = 0.4324 | 850.691 | 1.41341 | 1318
x2 = 0.4957 | 858.13 | 1.41462 | 1328.7
x2 = 0.5537 | – | 1.41582 | –
x2 = 0.5985 | 871.481 | 1.41679 | 1348.2
x2 = 0.6368 | 876.894 | 1.41766 | 1356.2
x2 = 0.6999 | 886.398 | 1.41919 | 1370.3
x2 = 0.7433 | 893.368 | 1.42032 | 1380.8
x2 = 0.8482 | 911.958 | 1.42329 | 1408.7
x2 = 0.8634 | 914.867 | 1.42376 | 1413.1
x2 = 0.8985 | 921.855 | 1.42488 | 1423.7
x2 = 0.948 | 932.305 | 1.42651 | 1439.5

CC(C)=O [acetone]
Settings | mass density, 293.15 K [kg/m3] | mass density, 298.15 K [kg/m3] | mass density, 303.15 K [kg/m3] | refractive index, 293.15 K | refractive index, 298.15 K | speed of sound, 293.15 K [m/s] | speed of sound, 298.15 K [m/s] | speed of sound, 303.15 K [m/s]
[1] | – | – | – | 1.35845 | 1.35386 | – | – | –
[2] | 790.19 | 784.43 | 778.63 | – | – | 1183.6 | 1163.6 | 1139.9

CCC(C)=O [butanone]
Settings | mass density, 293.15 K [kg/m3] | mass density, 298.15 K [kg/m3] | mass density, 303.15 K [kg/m3] | refractive index, 293.15 K | refractive index, 298.15 K | refractive index, 303.15 K | speed of sound, 293.15 K [m/s] | speed of sound, 298.15 K [m/s] | speed of sound, 303.15 K [m/s]
[1] | – | – | – | 1.37872 | 1.37605 | 1.37351 | – | – | –
[2] | 805.06 | 799.78 | 794.55 | – | – | – | 1212.6 | 1191.5 | 1172

CN(C)C=O [dimethylformamide]
Settings | mass density, 293.15 K [kg/m3] | mass density, 298.15 K [kg/m3] | mass density, 303.15 K [kg/m3] | refractive index, 293.15 K | refractive index, 298.15 K | refractive index, 303.15 K | speed of sound, 293.15 K [m/s] | speed of sound, 298.15 K [m/s] | speed of sound, 303.15 K [m/s]
[1] | – | – | – | 1.43055 | 1.4284 | 1.4261 | – | – | –
[2] | 948.82 | 944.06 | 939.28 | – | – | – | 1476.7 | 1458.6 | 1438.8

CN(C)C=O [dimethylformamide] + CC(C)=O
x1 = 1
Settings | mass density, 293.15 K [kg/m3] | mass density, 298.15 K [kg/m3] | mass density, 303.15 K [kg/m3] | refractive index, 293.15 K | refractive index, 298.15 K | speed of sound, 293.15 K [m/s] | speed of sound, 298.15 K [m/s] | speed of sound, 303.15 K [m/s]
[3] | 948.82 | 944.06 | 939.28 | – | – | 1476.7 | 1458.6 | 1438.8
[4] | – | – | – | 1.43055 | 1.4284 | – | – | –

CN(C)C=O [dimethylformamide] + CCC(C)=O
x1 = 1
Settings | mass density, 293.15 K [kg/m3] | mass density, 298.15 K [kg/m3] | mass density, 303.15 K [kg/m3] | refractive index, 293.15 K | refractive index, 298.15 K | refractive index, 303.15 K | speed of sound, 293.15 K [m/s] | speed of sound, 298.15 K [m/s] | speed of sound, 303.15 K [m/s]
[3] | 948.82 | 944.06 | 939.28 | – | – | – | 1476.7 | 1458.6 | 1438.8
[4] | – | – | – | 1.43055 | 1.4284 | 1.4261 | – | – | –

CN(C)C=O [dimethylformamide] + CCCC(C)=O
x1 = 1
Settings | mass density, 293.15 K [kg/m3] | mass density, 298.15 K [kg/m3] | mass density, 303.15 K [kg/m3] | refractive index, 293.15 K | refractive index, 298.15 K | refractive index, 303.15 K | speed of sound, 293.15 K [m/s] | speed of sound, 298.15 K [m/s] | speed of sound, 303.15 K [m/s]
[3] | 948.82 | 944.06 | 939.28 | – | – | – | 1476.7 | 1458.6 | 1438.8
[4] | – | – | – | 1.43055 | 1.4284 | 1.4261 | – | – | –

CN(C)C=O [dimethylformamide] + CCCCCC(C)=O
298.15 K, x1 = 1
Settings | mass density [kg/m3] | refractive index | speed of sound [m/s]
[3] | 944.06 | – | 1458.6
[4] | – | 1.4284 | –

CCCC(C)=O [pentan-2-one]
Settings | mass density, 293.15 K [kg/m3] | mass density, 298.15 K [kg/m3] | mass density, 303.15 K [kg/m3] | refractive index, 293.15 K | refractive index, 298.15 K | refractive index, 303.15 K | speed of sound, 293.15 K [m/s] | speed of sound, 298.15 K [m/s] | speed of sound, 303.15 K [m/s]
[1] | – | – | – | 1.39026 | 1.38793 | 1.38523 | – | – | –
[2] | 806.83 | 801.99 | 796.73 | – | – | – | 1232.4 | 1211.9 | 1191.7
